Data published in patent US9655909B2, “Personalized medicine for the prediction of therapy targeting the hedgehog pathway” (Board of Regents, The University of Texas System, priority 2012, dated 2017).

Columns and labels:
[1] = tested on: EAC cell lines and BE3 Gli1 stable clones; assay: IC50 evaluation for cyclopamine and GDC-0449 (cell growth); format: cell-based, human; details: for resistance of BE3/Gli1 under TNFα treatment: TNFα 5 ng/mL; for efficacy in the EAC cell lines with rapamycin treatment: rapamycin 10 nM pre-treatment
Procedure: FIGS. 7A-7G. […] FIG. 7A. The expression of activated SHH (SHH-N) in EAC cell lines and the cell culture medium. FIG. 7B. The mRNA levels of Gli1 target genes in EAC cell lines with or without SHH treatment (1 μg/mL). The mRNA levels of Gli1 target genes are normalized to ACTIN. Error bars represent SD (n=3). FIG. 7C. […] Error bars represent SD (n=4). FIG. 7D. […] Error bars represent SD (n=4). FIG. 7E. […] Error bars represent SD (n=4). FIG. 7F. […] Error bars represent SD (n=4). FIG. 7G. In vivo combination therapy for subcutaneously inoculated tumors from BE3 cells using GDC-0449 (50 mg/kg) or RAD001 (10 mg/kg). One million cells were subcutaneously injected into the right flank of nude mice and the tumor cells were allowed to grow for 10 days (the arrow) before initiation of drug treatment. The vehicle, GDC-0449, RAD001, or combination of GDC-0449 and RAD001 were orally administrated, qd. The tumor volume measured and calculated using the formula: l×w^2, where l is the longest diameter and w is the shortest diameter. Error bars represent SD (n=5).
The concentrations required to inhibit cell growth by 50% (IC50) were calculated from survival curves.

[2] = tested on: Gli-dependent luciferase reporter; assay: Gli-dependent luciferase reporter assay in EAC cell lines; format: cell-based, human
Procedure: Because Gli protein activity is a useful readout for the HH pathway (Jiang and Hui, 2008), the inventors employed a Gli-dependent luciferase reporter system (Sasaki et al., 1997) to evaluate the influence of TNFα on the HH pathway in three EAC cell lines, BE3, SKGT-4, and OE33 (Boonstra et al., 2010). […] Then, the inventors compared the activity of HH pathway in EAC cells stimulated by SHH or TNFα.
Cells were seeded in six-well plates and transfected with GliBS or mGliBS combined with CMV-Renilla vector as an internal standard. After overnight (12-16 hr) transfection, the cells were used for further experiments. After treatment, the cells were rinsed with PBS and subjected to luciferase assay using a dual-luciferase reporter assay system (Promega) based on the manufacturer's instruction.

[3] = tested on: subcutaneously inoculated tumors from BE3 cells; assay: In vivo combination therapy of subcutaneous BE3 tumors; parameters: species or system nude mice
From the text: FIG. 7A. […] FIG. 7B. […] Error bars represent SD (n=3). FIG. 7C. […] FIG. 7G.

Gli1 [4] = assay: Western blot of Gli1 in breast cancer cell lines; format: cell-based; details: for Gli1 protein levels: BT549 and Hs578t breast cancer cells
Procedure: FIG. 21. […] Western blot showing the effect of PF-4708671 on S6 phosphorylation, S6K1 phosphorylation, and Gli1 expression in the BT549 cell line. Tubulin was detected as a loading control. Lane labels indicate the micromolar concentration of PF-4708671 used.
FIG. 22. […] DMSO was used as a negative control.
A western blot was performed to show the effect of PF-4708671 on S6 phosphorylation, S6K1 phosphorylation, and Gli1 expression in the BT549 cell line (FIG. 21).

[5] = tested on: CF-Pac-1 and AsPC-1 stable clones; assay: MTT assay of PDAC Gli1 stable clones with GEM; format: cell-based
From the text: FIGS. 19A-C. Gli1 is negatively correlated with sensitivity of pancreatic cancer cells to GEM. Gli1 knock-down sensitized the response of PDAC cells to gemcitabine (GEM), but overexpression of Gli1 protected PDAC cells from GEM. FIG. 19A. Western blot of Gli1 in stable clones of AsPC-1 and CF-Pac-1 cells with Gli1 knocked down or ectopic expression. FIG. 19B. MTT assay of CF-Pac-1 stable clones with GEM. FIG. 19C. MTT assay of AsPC-1 stable clones with GEM.
Knock-down of Gli1 in PDAC cells sensitized the cells to gemcitabine (GEM), and overexpression of Gli1 protected PDAC cells from GEM. The inventor's performed a western blot for Gli1 in stable clones of AsPC-1 and CF-Pac-1 cells with Gli1 knocked down or ectopically expressed (FIG. 19A). MTT assays were performed on CF-Pac-1 stable clones (FIG. 19B) and AsPC-1 stable clones (FIG. 19C) with GEM. Gli1 expression correlated negatively with sensitivity of pancreatic cancer cells to GEM.

Gli1 [6] = assay: Gli1 nuclear accumulation (cell fractionation Western blot, immunofluorescence) in BE3 cells; format: cell-based, human; details: TNFα 5 ng/mL alone
Procedure: FIGS. 1A-1E. TNFα regulates Gli1 transcriptional activity. FIG. 1A. Luciferase assay for Gli transcriptional activity in esophageal adenocarcinoma (EAC) cell lines with or without TNFα (5 ng/mL) stimulation. The EAC cells were transfected using GliBS-Luciferase or mGliBS-Luciferase with CMV-Renilla at a 10:1 ratio, serum-starved overnight, and then treated with TNFα for 24 hr. GliBS is a Gli-responsive reporter, and mGliBS is a Gli-unresponsive reporter. Error bars represent SD (n=5). FIG. 1B. The mRNA levels of Gli1 target genes in the EAC cell lines with or without TNFα (5 ng/mL) stimulation were examined by real-time PCR and normalized to the mRNA level of ACTIN. Error bars represent SD (n=4). FIG. 1C. […] FIG. 1D. […] Then, the cells were lysed for cell fractionation followed by Western blotting. Lamin B and tubulin were used as markers for the nucleus and the cytoplasm, respectively. FIG. 1E. Immunofluorescent analysis of Gli1 in BE3 cells treated with TNFα (5 ng/mL) alone or co-treated with TNFα and rapamycin (50 nM) for the indicated time course. Scale bar=100 μm for original picture and 25 μm for inset. Dapi was used to stain nuclei.
Cellular fractionation was performed as described previously (Lin et al., 2001). Briefly, cells were lysed in the lysis buffer (20 mM HEPES, pH 7.0, 10 mM KCl, 2 mM MgCl2, 0.5% NP-40, 1 mM Na3VO4, 10 mM NaF, 1 mM PMSF, 2 μg/mL aprotinin). […]

CS(=O)(=O)c1ccc(C(=O)Nc2ccc(Cl)c(-c3ccccn3)c2)c(Cl)c1 [GDC-0449]
IC50 value in BE3/S84E compared with BE3/EV, BE3/Gli1 and BE3/S84A ([1]; 48 hr, Gli1 stable clones): much higher
resistance of BE3/Gli1 under TNFα treatment [1]: increased the resistance
efficacy in the EAC cell lines with rapamycin treatment [1]: enhanced the efficacy
constitutive activation of HH pathway in EAC cell lines ([2]; Gli reporter, EAC cell lines, FIG. 9A): can be inhibited
mTOR/S6K1-mediated Gli1 activation ([2]; SMO inhibitors): had little effects
EAC tumor size ([3]; GDC-0449 50 mg/kg qd oral, alone): decreased the EAC tumor size

NC1(c2ccc(-c3nc4ccn5c(=O)[nH]nc5c4cc3-c3ccccc3)cc2)CCC1 [MK]
Gli1 protein levels (Gli1 [4]): decreased Gli1 protein levels

CCc1cncnc1N1CCN(Cc2nc3ccc(C(F)(F)F)cc3[nH]2)CC1 [PF-4708671]
Gli1 expression (Gli1 [4]; BT549 cell line): decreased

CO[C@H]1C[C@@H]2CC[C@@H](C)[C@@](O)(O2)C(=O)C(=O)N2CCCC[C@H]2C(=O)O[C@H]([C@H](C)C[C@@H]2CC[C@@H](OCCO)[C@H](OC)C2)CC(=O)[C@H](C)/C=C(\C)[C@@H](O)[C@@H](OC)C(=O)[C@H](C)C[C@H](C)/C=C/C=C/C=C/1C [RAD001, everolimus]
Gli1 protein levels (Gli1 [4]): decreased Gli1 protein levels
tumor-inhibitory effect of GDC-0449 when combined with RAD001 ([3]; GDC-0449 50 mg/kg and RAD001 10 mg/kg qd oral): enhanced the tumor-inhibitory effect
tumor growth ([3]; RAD001 10 mg/kg qd oral, alone, low dose): did not inhibit tumor growth

CC1=C2C[C@H]3[C@@H](CC=C4C[C@@H](O)CC[C@@]43C)[C@@H]2CC[C@]12O[C@@H]1C[C@H](C)CN[C@H]1[C@H]2C [cyclopamine]
resistance of BE3/Gli1 under TNFα treatment [1]: increased the resistance
efficacy in the EAC cell lines with rapamycin treatment [1]: enhanced the efficacy

Nc1ccn([C@@H]2O[C@H](CO)[C@@H](O)C2(F)F)c(=O)n1 [gemcitabine]
response of PDAC cells with knock-down of Gli1 [5]: sensitized
response of PDAC cells with overexpression of Gli1 [5]: protected

TNFα
activity of HH pathway in EAC cells ([2]; Gli reporter, stimulation by SHH or TNFα, FIG. 9A): increased the activity of HH pathway
Gli1 nuclear accumulation (Gli1 [6]): rapidly induced Gli1 nuclear accumulation
